Data set [1] relates to primary ovarian cancer cells. Nature of the data set: Flow cytometry of MHC class I, HLA-A2 and ICAM-1 on primary ovarian tumor cells after IFN-γ. It is filed as cell-based, human. The note with it: 500 U/ml for 48 hrs. How it is done:
Briefly, tumor cells were harvested with 0.25 percent trypsin in HBBS (Gibco, Grand Island, N.Y.) and washed once in complete medium. Cell suspensions were counted and distributed into 12×75 mm tubes at 5×10^5 cells/tube. Mouse monoclonal antibodies [anti-HLA class I (MAb W6/32); anti-HLA-A2 (BB7-2) and anti-HLA Class II (MAb CR3-43) Accurate Chemical and Scientific Corporation, Westbury, N.Y.); and anti-ICAM-1 (MAb LB-2; Becton Dickinson)] were diluted in cold assay buffer (PBS, pH 7.2, supplemented with 0.1% FCS) and added in a 50-μl volume. A mouse IgG preparation (MAb IgG2a; Becton Dickinson) was used as negative control. Tumor cells were analyzed by FACScan (Becton Dickinson) utilizing Cell Quest software (Becton Dickinson).
In contrast, MHC class II molecule expression was negligible in all 3 primary tumor cell lines tested (data not shown).

Data set [2] deals with autologous primary ovarian cancer cells endogenously expressing TADG-12. Nature of the data set: 51Cr-release cytotoxicity against autologous ovarian cancer cells expressing TADG-12. It is filed as cell-based, human. The procedure:
FIG. 9. […] A representative experiment from patient 1 is shown.
FIG. 10. CD8^+ CTL recognition of autologous ovarian cancer cells (i.e., K ova) endogenously expressing TADG-12 by TADG-12 P5-stimulated lymphocytes. […] A representative experiment from patient 1 is shown.
Cryopreserved peripheral blood leukocytes (PBL) from patient # 3, harboring advanced stage ovarian cancer, have been used for the generation of DC. Monocyte-derived DC were cultured in AIM-V (Gibco-BRL) supplemented with GM-CSF and IL-4 (1). After 5 days' culture, DC maturation was induced by addition of TNFα, IL-1β and PGE2 (1). Mature DC were pulsed for 1-2 hr at 37° C. with 50 μg/ml of all 8 TADG-12-derived peptides, and washed twice before culture with PBL at a responder:stimulator ratio of 30:1. The culture medium was AIM-V plus 5% human AB serum (Gemini Bioproducts). No IL-2 was added. After 7 days, responder T cells were collected and restimulated with peptide-pulsed DC. For the second and third DC stimulations, the medium was supplemented with 50-100 U/ml IL-2, and the culture period extended to 14 days. After the third cycle, CD8+ T cells were recovered by positive selection with anti-CD8 magnetic beads (Dynal). Subsequent restimulations (passages) of CD8+ T cells used peptide-loaded autologous PBL as antigen-presenting cells.

Data set [3] concerns primary ovarian cancer cell lines. Nature of the data set: Real time PCR of CA125 and TADG-12 mRNA after IFN-γ. It is filed as cell-based, human. The note with it: after exposure to IFN-γ, data not shown. The procedure:
Importantly, because tissue digestion and prolonged in vitro cell culture may potentially alter CA125 and TADG-12 antigen expression, primary ovarian cancer cell lines were evaluated before and after several in vitro passages for CA125 and TADG-12 expression by real time PCR and flow cytometry. Briefly, RNA extraction was performed on autologous primary ovarian cancer cell lines when tumor cells were 50% to 80% confluent after no passages (i.e., P0) and up to a maximum of twenty passages in vitro. RNA isolation was performed using TRIzol Reagent (Invitrogen) according to the manufacturer's instructions. To verify integrity, 4 μg of RNA from each sample was run in 1% agarose gel using 18S+28S Ribosomal RNA (Sigma) as positive control. Briefly, five μg of total RNA from each sample was reverse-transcribed using SuperScript III first strand cDNA synthesis (Invitrogen). […] Quantitative-RT-PCR was performed with an ABI Prism 7000 Sequence Analyzer using the manufacturer's recommended protocol (Applied Biosystems, Foster City, Calif.) to evaluate expression of CA125 and TADG-12 in primary tumors. […] Primers specific for 18S ribosomal RNA and empirically determined ratios of 18S competimers (Applied Biosystems) were used to control for the amount of cDNA generated from each sample. […]
Background: Quantitative PCR measures a nucleic acid by following its amplification.

In data set [4] the test system is autologous unpulsed LCL. Put plainly: 51Cr-release cytotoxicity against unpulsed autologous LCL. It is filed as cell-based, human. The conditions noted are these: CTL stimulated by CA125 P10-pulsed autologous DC.
For data set [5], the system named is autologous primary ovarian cancer cells endogenously expressing CA125.
Description: Cytotoxicity was tested in a 5 hr ^51Cr-release assay against autologous primary ovarian cancer target cells and unpulsed autologous LCL at different Effector cell: Target cell ratios (E:T). Blocking monoclonal antibody (MAb) against non-polymorphic HLA A, B, and C determinants (W6/32) was also used.
Cytotoxicity was tested in a 5 hr 5 Cr-release assay against autologous primary ovarian cancer target cells and autologous LCL at a 20:1 ratio. Blocking monoclonal antibody against non-polymorphic HLA A, B, and C determinants (W6/32) was also used.
Briefly, viable tumor tissue was mechanically minced in RPMI 1640 to portions no larger than 1-3 mm^3 and washed twice with RPMI 1640. The portions of minced tumor were then placed into 250 ml flasks containing 30 ml of enzyme solution [0.14% collagenase Type 1 and 0.01% DNAse 2000 KU/mg; (Sigma)] in RPMI 1640, and incubated on a magnetic stirring apparatus overnight at 4° C. Enzymatically dissociated tumor was then filtered through 150 μm nylon mesh to generate a single cell suspension. The resultant cell suspension was then washed twice in RPMI 1640 plus 10% FBS (fetal bovine serum). Purity of fresh tumor cultures was tested by morphology, immunochemistry staining and/or flow cytometry with antibodies against cytokeratins. Only cell lines containing more than 99% tumor cells were evaluated in cytotoxicity assays. […]
Data set [6] has as its system autologous LCL pulsed with CA125-derived peptides. Nature of the data set: 51Cr-release cytotoxicity of peptide-specific CD8+ T cells against LCL pulsed with CA125 peptides. It is filed as cell-based, human. The note with it: CD8+ T cells from a healthy donor, autologous LCL pulsed with 50 μg/ml peptide, 5 hour 51Cr-release. How it is done: Dendritic cells were loaded with the CA125 peptides of Table 3 and used to amplify CD8+ T cells cytotoxic against cells displaying the cognate peptide as described in Example 5. The amplified CD8+ T cell lines were tested for cytoxicity against autologous lymphoblastoid cell lines (LCL) pulsed with the CA125 peptide used to amplify the T cells. Cytotoxicity was tested in a 5 hour ^51Cr-release assay against autologous LCL and autologous LCL pulsed with 50 μg/ml peptide (5, 6). […] Natural killer (NK)-sensitive K562 cells were not lysed (data not shown).

“Also recorded” adds a separate entry of the source. Where no end group is shown, it is not given here.

On to “IFN-γ: Cytokine to which primary ovarian tumor cells were exposed (500 U/ml for 48 hrs)”, for which the “MHC class I, HLA-A2 and ICAM-1 expression levels” value in data set [1] is reported as “markedly up-regulate”. Moreover, the “effect of IFN-γ exposure of tumor cells on recognition and killing by peptide-specific CTL” value in data set [2] (exposure for 48 hrs) was “further increased recognition and killing of autologous ovarian cancer cells; also recorded: significantly increase the cytotoxic activity”. In data set [3], the “expression levels of CA125 and TADG-12 mRNA” value is on record as “did not detect any change”.

Regarding YTLDRDSLYV [P10 CA125/10, YTLDrDSLYV], the “cytotoxicity against autologous unpulsed LCL” value in data set [4] is on record as “not against autologous unpulsed LCL”.

Regarding YLPKSWTIQV [P5 TADG12/10, YLPKsWTIQV], the “cytotoxicity against autologous primary ovarian cancer cells endogenously expressing TADG-12” value in data set [2] (TADG-12 peptides, CTL stimulated by peptide-pulsed DC, 5 hr 51Cr-release, listed as SEQ ID NO: 17) is “consistently lyse autologous ovarian tumor cells expressing TADG-12”.

Turning to TLLVTGTSRV [P12 CA125/10, TLLVtGTSRV], the “cytotoxicity against autologous primary ovarian cancer cells endogenously expressing CA125” value in data set [5] was “Unlike peptides 7, 11 and 12, only the CA125 YTLDrDSLYV (SEQ ID NO:10) peptide (P10) was found to be reliably cytotoxic”.

With FMVPFTLNFT [P11 CA125/10, FMVPfTLNFT], the “cytotoxicity against autologous primary ovarian cancer cells endogenously expressing CA125” value in data set [5] is “Unlike peptides 7, 11 and 12, only the CA125 YTLDrDSLYV (SEQ ID NO:10) peptide (P10) was found to be reliably cytotoxic”.

On to “LLMPfTLNFT (LLMPFTLNFT; listed as Homo sapiens) [P9 CA125/10]”, for which the “% Lysis” value in data set [6] was found to be 0%.

These data come from patent publication US8097242B2, “Target CA125 peptides for cancer immunotherapy” (The Board of Trustees of the University of Arkansas, priority 2006, dated 2012).
